Results: patent US20090253206A1, “NUCLEAR TRANSPORT AGENT AND METHOD FOR PRODUCING SAID AGENT” (LONZA COLOGNE AG, priority 2006, published 2009)
Ends that are not written are not given here.

Columns and labels:
pmaxGFP plasmid DNA [1] = assay: DNA-band shift of plasmid DNA with positively charged peptides and peptide-NLS in Opti-MEM (FIGS. 3 and 4); format: binding; conditions: 90 ng or 135 ng DNA, various peptide amounts in Opti-MEM, 20° C., 30 min; comparison between peptides
Method: Plasmid DNA (90 ng per sample) was incubated with different amounts (numbers above each lane indicate pico-mole amounts per sample) of positively charged peptides (see list of peptide sequences for details) in Opti-MEM as described below.
Several positively charged peptides, as well as positively charged peptides bearing a positively charged NLS (NLS1) or a neutral NLS (NLS2) were tested for their ability to complex DNA and form higher aggregates, visible as shifts of the electrophoretic mobility of the DNA.
Peptides were synthesized by F-moc-chemistry and HPLC-purified to 95% purity. The carboxyl-group at the C-terminus was amidated and the N-terminal amino-group was actylated, in order to eliminate additional charges. U represents the spacer molecule 8-amino-3,6-dioxaoctanoic acid (UUU (U3) represents a trimer of U):
Lyophilized peptides, provided by supplier, were dissolved in distilled water to 0.1 mM. DNA was pmaxGFP plasmid DNA, 3.7 kb size (amaxa AG, Cologne), dissolved in water at 1 mg/ml. The plasmid encodes a green fluorescent protein (GFP).
For DNA-band shift experiments 90 ng or 135 ng DNA, resp., were incubated with various amounts of peptide (indicated in the figure) in Opti-MEM (Invitrogen) in a total volume of 60 μl or 90 μl, resp., at 20° C. for 30 min. Loading dye was added before each sample was filled into a slot of a 0.6% agarose gel (40 mM Tris-acetate/1 mM EDTA as running buffer, pH 8.0). Electrophoresis was run at 90V for 120 min.
P=90 ng plasmid DNA without peptide M=kb marker (bands indicating 0.5, 1, 1.5, 2, 3, 4, 5, 6, 8, and 10 kb).
The gel was stained with Ethidiumbromide for 10 min, then documented using a BioRad Gel-Doc System.
With increasing amounts of peptide the DNA band is gradually shifting, indicating decreased electrophoretic mobility due to higher molecular size of the peptide-DNA complexes and due to decrease in negative charge of the DNA compensated by the positively charged peptides. As the concentration of the peptide further increases, the molecular weight of the complexes increases as well. The complexes are therefore hardly moving into the gel, the bands appear right below the loading slot. The plasmid DNA is represented by two bands in the gel, one dominant band of super-coiled slightly above 2 kb, and a weaker band between 3 and 4 kb showing the relaxed plasmid DNA.

[2] = test system: Human Umbilical Vein Endothelial Cells (HUVEC); assay: Transfection of HUVEC with HiFect and peptide-NLS, GFP expression by flow cytometry; format: cell-based; conditions: HiFect, 1.5 μg DNA, 24 hours post transfection, FIG. 8 and FIG. 9
Method: (§1) Cells were grown and seeded as described below. FACS data of duplicate samples are shown.
(§2) Cells were grown and seeded as described below. FACS data of mean values of the duplicate samples are shown.
(§3) Human Umbilical Vein Endothelial Cells (HUVEC, from LONZA) were grown in EGM-2 medium (Bullet Kit, LONZA) and seeded in 12-well plates one day before transfection at a density of 1.2×10^5 cells per well in 1 ml EGM-2 medium (LONZA).
(§4) Transfection reagents were ExGen500 (Fermentas) and HiFect (amaxa) used according to manufacturer's protocols. Plasmid-DNA (1.5 μg), coding for green fluorescent protein (pmaxGFP, amaxa) was complexed with peptides (amounts as indicated in the figures) for 30 min at room temperature prior to mixing with transfection reagent.
(§5) For transfection with HiFect complex formation of DNA and peptide was done in 250 μl Opti-MEM (Invitrogen) for each sample.
Complete transfection samples were added to HUVEC in Opti-MEM, incubated for 1 h at 37° C./5% CO2 in a humidified incubator. Medium was aspirated, cells washed with PBS twice. […] Expression of maxGFP was measured by flow cytometry and expressed as transfection efficiency (percentage of GFP-positive cells of all viable cells) and X-mean (mean fluorescent intensity of the cells) 24 h after transfection (HUVEC), 48 h or 72 h after transfection in the case of PC12.

[3] = test system: Human Umbilical Vein Endothelial Cells (HUVEC); assay: Transfection of HUVEC with ExGen500 and peptide-NLS, GFP expression by flow cytometry; format: cell-based; conditions: for transfection efficiency (percentage of GFP-positive cells of all viable cells): ExGen500, 1.5 μg DNA, 24 hours post transfection; for change of transfection efficiency (in words): FIG. 5 and FIG. 6
Method: as §1
Cells were grown and seeded as described below. Mean values of the duplicate samples are shown.
as §3, §4
For transfection with ExGen500 complex formation was done in 30 μl 150 mM NaCl solution. These preformed DNA-peptide complexes were added to transfection reagent (diluted in Opti-MEM or 150 mM NaCl according to manufacturer's protocols) and incubated.
(§6) Complete transfection samples were added to HUVEC in Opti-MEM, incubated for 1 h at 37° C./5% CO2 in a humidified incubator. Medium was aspirated, cells washed with PBS twice. Fresh medium was added, and cells were incubated for another 23 h, then prepared for flow cytometry. To differentiated PC12 transfection samples were added in Opti-MEM, incubated for 1 h. After supernatant was removed fresh medium was added. Expression of maxGFP was measured by flow cytometry and expressed as transfection efficiency (percentage of GFP-positive cells of all viable cells) and X-mean (mean fluorescent intensity of the cells) 24 h after transfection (HUVEC), 48 h or 72 h after transfection in the case of PC12.

pmaxGFP plasmid DNA [4] = assay: Electrophoretic mobility shift assay in agarose gel, peptides with different positive net charges (FIG. 2); format: binding; conditions: 1 μg DNA with 1 nM peptide in water, 20 μl, 20° C., 30 min; 0.6% agarose gel
Method: 1 μg DNA was incubated with 1 nM peptide in water in a total volume of 20 μl at 20° C. for 30 min. After that loading dye was added, each sample filled into a slot of a 0.6% agarose gel (Tris-acetate/EDTA as running buffer, pH 8.5). Electrophoresis was run at 90V for 120 min. P=1 μg plasmid DNA without peptide. M=kb marker (bands indicating 1.5, 2, 3, 4, 5, and 6 kb). The gel was stained with Ethidiumbromide for 10 min, then documented using a BioRad Gel-Doc System.
DNA interacting unspecifically with peptides through positively charged amino acids may mask positively charged nuclear localisation sequences (NLS) and interfere with their function in nuclear transport. […] Peptides were designed with different positive net charges, 5+, 4+, 3+, 2+, 0±, by exchanging neutral amino acids for acidic ones or vice versa acidic for neutral amino acids
Peptides were synthesized by F-moc-chemistry and HPLC-purified to 95% purity. The carboxyl-group at the C-terminus was amidated and the N-terminal amino-group was actylated, in order to eliminate additional charges.
(§7) The NLS on the NLS-1 peptide may be masked and altered in its capacity to mediate nuclear translocation, whereas all other peptides are still functioning in nuclear import.

pmaxGFP plasmid DNA [5] = assay: Electrophoretic mobility shift assay in agarose gel, NLS peptides in water (FIG. 1); format: binding; conditions: 1 μg DNA with μg amounts of peptide in water, 20 μl, 20° C., 30 min; 0.6% agarose gel
Method: 1 μg DNA was incubated with peptide (μg amounts as indicated in the figure) in water in a total volume of 20 μl at 20° C. for 30 min. After that loading dye was added, each sample filled into a slot of a 0.6% agarose gel (Tris-acetate/EDTA as running buffer, pH 8.5). Electrophoresis was run at 90V for 120 min. P=1 μg plasmid DNA without peptide. M=kb marker (bands indicating 1.5, 2, 3, 4, 5, and 6 kb). The gel was stained with Ethidiumbromide for 10 min, then documented using a BioRad Gel-Doc System.
DNA interacting unspecifically with peptides through positively charged amino acids may mask positively charged nuclear localisation sequences (NLS) and interfere with their function in nuclear transport.
Peptides were synthesized by F-moc-Chemistry and HPLC-purified to 95% purity. The carboxyl-group at the C-terminus was amidated and the N-terminal amino-group was actylated, in order to eliminate additional charges.
DNA was pmaxGFP plasmid DNA ([…] size).
as §7

[6] = test system: neuronally differentiated PC12 cells; assay: Transfection of neuronally differentiated PC12 cells with HiFect and peptide-NLS, GFP expression by flow cytometry; format: cell-based; conditions: differentiated PC12, HiFect, 1 μg DNA
Method: as §2
PC12 cells (from ATCC) were grown in F-12K medium (ATCC) with 15% horse serum (Gibco) and 2.5% foetal calf serum (ATCC). Cells were seeded in 12-well plates; 5×10^4 coated with collagen (from rat tail (SIGMA), 60 μg per well, dissolved in 0.005% acetic acid/30% ethanol at 60 μg per ml). After one day of culture nerve growth factor (NGF-β from SIGMA, 100 ng/ml final concentration) was added to differentiate neuronal cells. 7 days after start of differentiation, cells were used for transfection.
Transfection reagents were ExGen500 (Fermentas) and HiFect (amaxa) used according to manufacturer's protocols. […]
as §5
as §6, with “To differentiated PC12 transfection samples were added in Opti-MEM, incubated for 1 h. After supernatant was removed fresh medium was added.” left out, “PC12. […]” for “PC12.”

RKKRK RKKRK RKKRK RKKRK-UUU-EEDTP PKKKR KVED [RKK20U3-NLS2]
peptide amount needed to form a high molecular weight complex / total band shift (pmaxGFP plasmid DNA [1]): seems to increase the peptide amount necessary for a total band shift
increase in transfection efficiency, factor [2]: 2
increase in transfection efficiency, factor ([3]; ExGen500, 24 h, compared to DNA transfected without any peptide or complexed with RKK20GGGS peptide without NLS, FIG. 6): 1.2
peptide amount sufficient for increase in transfection efficiency (in words) ([3]; ExGen500, FIG. 5 versus FIG. 6): lower amount of RKKU3-NLS2 than of K16U3-NLS2 is sufficient

KKKKK KKKKK KKKKK K-UUU (Ac-KKKKKKKKKKKKKKKK; not fully specified (C-terminus); printed as KKKKK KKKKK KKKKK K-UUU) [K16U3]
peptide amount needed to form a high molecular weight complex / total band shift (pmaxGFP plasmid DNA [1]): form a high molecular weight complex (i.e. no migration into the gel) at the same concentrations
transfection efficiency (percentage of GFP-positive cells of all viable cells) ([3]; FIG. 5): 49.5%
change of transfection efficiency (in words) ([3]; ExGen500, 24 h): decreasing transfection efficiency

RKKRK RKKRK RKKRK RKKRK-UUU-GSGSP KKKRK VGSG [RKK20U3-NLS1]
peptide amount needed to form a high molecular weight complex / total band shift (pmaxGFP plasmid DNA [1]): does not behave much differently to the RKK20GGGS peptide
change of transfection efficiency (in words) ([3]; ExGen500, 24 h): increase is higher for the NLS2-peptide than for the NLS1-bearing peptide

KKKKKKKKKKKKKKKKKKKKKKKKKGGGS (KKKKKKKKKKKKKKKKKKKKKKKKKGGGS; DNA-anchoring peptide) [K25GGGS]
peptide amount needed to form a high molecular weight complex / total band shift (pmaxGFP plasmid DNA [1]): cause a total shift to decreased electrophoretic mobility at lower peptide amounts than K16GGGS and K16U3

KKKKK KKKKK KKKKK K-UUU-GSGSP KKKRK VGSG [K16U3-NLS1]
change of transfection efficiency (in words) ([3]; ExGen500, 24 h): increase of transfection efficiency is less distinctive

RKKRKRKKRKRKKRKRKKRKGGGS (Ac-RKKRKRKKRKRKKRKRKKRKGGGS-NH2) [RKK20GGGS]
peptide amount needed to form a high molecular weight complex / total band shift (pmaxGFP plasmid DNA [1]): cause a total shift to decreased electrophoretic mobility at lower peptide amounts than K16GGGS and K16U3

KKKKK KKKKK KKKKK KGGGS (Ac-KKKKKKKKKKKKKKKKGGGS-NH2) [K16GGGS]
peptide amount needed to form a high molecular weight complex / total band shift (pmaxGFP plasmid DNA [1]): form a high molecular weight complex (i.e. no migration into the gel) at the same concentrations

GSGSPKKKRKVGSG (Ac-GSGSPKKKRKVGSG-NH2) [NLS-1, SV40 large T-antigen core NLS with glycine and serine flanks]
alteration of the electrophoretic mobility of DNA (binding to DNA, aggregates) (pmaxGFP plasmid DNA [4]): do bind to DNA and form aggregates
alteration of the electrophoretic mobility of DNA (binding to DNA, aggregates) (pmaxGFP plasmid DNA [5]): does bind to DNA and forms aggregates

RKKRK RKKRK RKKRK RKKRK-PEG27- EEDTP PKKKR KVED [RKK20-PEG27-NLS2]
maximum increase in transfection efficiency, factor ([6]; compared to peptide RKK20 without NLS, 200 pmol resp., FIG. 11): 2.8
peptide amount needed to form a high molecular weight complex / total band shift (pmaxGFP plasmid DNA [1]): behaves similarly
increase in transfection efficiency, factor [2]: 1.5
increase in transfection efficiency, factor ([3]; ExGen500, 24 h, FIG. 7, comparator not stated): 1.2

KKKKK KKKKK KKKKK K-UUU-EEDTP PKKKR KVED [K16U3-NLS2]
maximum increase in transfection efficiency, factor ([6]; 72 hours post transfection, compared to HiFect without peptide, FIG. 10): 2.6
transfection efficiency (percentage of GFP-positive cells of all viable cells) ([3]; FIG. 5): 69%
increase of transfection efficiency, factor ([3]; ExGen500, 24 h, compared to peptide K16U3 without NLS, FIG. 5): 1.4
